According to ChEMBL document CHEMBL3232727, “Evaluation of bisindole as potent β-glucuronidase inhibitors: synthesis and in silico based studies” (Bioorg Med Chem Lett, 2014):

Assays:
[1] = target: T1, Beta-glucuronidase (Bos taurus) (UniProt A3KMY8); assay: (§1) Inhibition of bovine liver beta-glucuronidase using p-nitrophenyl-beta-D-glucuronide as substrate after 30 mins by spectrophotometry; design: concentration or dose not given beside the values
T1 sequence (whole entry): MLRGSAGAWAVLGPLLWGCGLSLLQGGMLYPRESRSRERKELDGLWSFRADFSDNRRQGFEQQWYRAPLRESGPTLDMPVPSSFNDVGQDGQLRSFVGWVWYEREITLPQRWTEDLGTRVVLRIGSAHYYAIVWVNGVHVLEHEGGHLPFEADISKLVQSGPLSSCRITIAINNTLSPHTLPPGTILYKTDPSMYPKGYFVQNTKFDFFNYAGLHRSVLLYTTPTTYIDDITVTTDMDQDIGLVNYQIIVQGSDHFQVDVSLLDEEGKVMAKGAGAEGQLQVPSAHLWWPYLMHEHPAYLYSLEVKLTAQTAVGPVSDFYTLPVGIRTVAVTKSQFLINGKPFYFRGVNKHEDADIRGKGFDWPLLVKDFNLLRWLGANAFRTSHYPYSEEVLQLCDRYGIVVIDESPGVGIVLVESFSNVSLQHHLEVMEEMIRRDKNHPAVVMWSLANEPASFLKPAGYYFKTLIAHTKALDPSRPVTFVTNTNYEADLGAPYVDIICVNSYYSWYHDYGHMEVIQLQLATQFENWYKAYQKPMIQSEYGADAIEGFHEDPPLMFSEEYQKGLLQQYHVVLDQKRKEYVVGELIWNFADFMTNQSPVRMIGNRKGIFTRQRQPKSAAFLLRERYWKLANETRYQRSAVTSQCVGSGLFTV

[2] = target: T2, Beta-glucuronidase (Bos taurus, UniProt A3KMY8); assay: as §1
T2 sequence (A3KMY8 whole entry): T1 sequence (whole entry)

Row | inhibition [1] | IC50 [2] | Structure (SMILES)
1 | < 50% |  | O=[N+]([O-])c1ccc(C(c2c[nH]c3ccc(Br)cc23)c2c[nH]c3ccc(Br)cc23)cc1
2 |  | 21.5 µM | Clc1ccc(C(c2c[nH]c3ccc(Br)cc23)c2c[nH]c3ccc(Br)cc23)cc1Cl
3 | < 50% |  | N#Cc1ccc2[nH]cc(C(c3ccc(Cl)c(Cl)c3)c3c[nH]c4ccc(C#N)cc34)c2c1
4 |  | 20.9 µM | Cc1ccccc1C(c1c[nH]c2ccc(Br)cc12)c1c[nH]c2ccc(Br)cc12
5 | < 50% |  | CSc1ccc(C(c2c[nH]c3ccc(C#N)cc23)c2c[nH]c3ccc(C#N)cc23)cc1
6 |  | 1.62 µM | Oc1ccc(C(c2c[nH]c3ccc(Br)cc23)c2c[nH]c3ccc(Br)cc23)c(O)c1
7 |  | 18.4 µM | Fc1ccccc1C(c1c[nH]c2ccc(Br)cc12)c1c[nH]c2ccc(Br)cc12
8 | < 50% |  | CSc1ccc(C(c2c[nH]c3ccc(Br)cc23)c2c[nH]c3ccc(Br)cc23)cc1
9 | < 50% |  | COc1ccccc1C(c1c[nH]c2ccc(Br)cc12)c1c[nH]c2ccc(Br)cc12
10 | < 50% |  | O=[N+]([O-])c1ccccc1C(c1c[nH]c2ccc(Br)cc12)c1c[nH]c2ccc(Br)cc12
11 |  | 19.9 µM | N#Cc1ccc2[nH]cc(C(c3ccccc3[N+](=O)[O-])c3c[nH]c4ccc(C#N)cc34)c2c1
12 | < 50% |  | COc1cc(C(c2c[nH]c3ccc(Br)cc23)c2c[nH]c3ccc(Br)cc23)ccc1O
13 |  | 22.3 µM | Clc1cccc(C(c2c[nH]c3ccc(Br)cc23)c2c[nH]c3ccc(Br)cc23)c1
